How the values were obtained:
Test in all cases: radiometric filter-binding kinase assay, Kinase HotSpot
Conditions in all cases: compound 0.5 µM; ATP 10 µM
ADRBK2 (human) = ADRBK2 (human) (UniProt P35626)
AKT1 (human) = AKT1 (human) (UniProt P31749)
CAMKK1 (human) = CAMKK1 (human) (UniProt Q8N5S9)
CDK3 CCNE1 (human) = CDK3 CCNE1 (human) (UniProt Q00526+P24864)
CLK3 (human) = CLK3 (human) (UniProt P49761)
CSNK1A1 (human) = CSNK1A1 (human) (UniProt P48729)
CSNK1G1 (human) = CSNK1G1 (human) (UniProt Q9HCP0)
DYRK2 (human) = DYRK2 (human) (UniProt Q92630)
EPHA5 (human) = EPHA5 (human) (UniProt P54756)
EPHB1 (human) = EPHB1 (human) (UniProt P54762)
EPHB3 (human) = EPHB3 (human) (UniProt P54753)
FER (human) = FER (human) (UniProt P16591)
FLT3 (human) = FLT3 (human) (UniProt P36888)
FLT3 (human), sequence (P36888 whole entry, looked up): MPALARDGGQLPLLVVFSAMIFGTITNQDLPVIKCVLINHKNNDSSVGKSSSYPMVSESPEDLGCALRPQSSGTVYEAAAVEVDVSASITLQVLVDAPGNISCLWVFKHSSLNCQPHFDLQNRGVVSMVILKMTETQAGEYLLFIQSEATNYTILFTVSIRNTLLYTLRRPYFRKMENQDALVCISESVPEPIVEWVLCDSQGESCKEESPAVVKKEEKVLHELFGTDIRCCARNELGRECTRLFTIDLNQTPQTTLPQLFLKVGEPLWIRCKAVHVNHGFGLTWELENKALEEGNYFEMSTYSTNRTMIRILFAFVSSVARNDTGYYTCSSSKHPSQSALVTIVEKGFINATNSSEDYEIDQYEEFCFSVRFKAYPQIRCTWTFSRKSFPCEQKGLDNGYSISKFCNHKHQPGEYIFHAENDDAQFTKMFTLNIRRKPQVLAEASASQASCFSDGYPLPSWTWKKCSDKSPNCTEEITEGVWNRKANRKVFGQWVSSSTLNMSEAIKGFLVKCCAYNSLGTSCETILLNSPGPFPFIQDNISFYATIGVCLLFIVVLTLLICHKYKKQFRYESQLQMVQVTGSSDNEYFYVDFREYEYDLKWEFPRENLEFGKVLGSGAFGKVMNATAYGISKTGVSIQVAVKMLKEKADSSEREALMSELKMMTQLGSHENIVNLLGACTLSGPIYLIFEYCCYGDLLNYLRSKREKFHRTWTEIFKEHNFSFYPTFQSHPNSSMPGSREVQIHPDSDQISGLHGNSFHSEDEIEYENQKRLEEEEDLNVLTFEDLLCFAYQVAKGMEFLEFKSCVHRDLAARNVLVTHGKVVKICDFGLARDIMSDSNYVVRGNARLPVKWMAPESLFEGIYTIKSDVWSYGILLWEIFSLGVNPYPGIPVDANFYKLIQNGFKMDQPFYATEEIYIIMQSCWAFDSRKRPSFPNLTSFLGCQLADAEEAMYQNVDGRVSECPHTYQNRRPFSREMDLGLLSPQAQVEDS

GRK6 (human) = GRK6 (human) (UniProt P43250)
INSRR (human) = INSRR (human) (UniProt P14616)
INSRR (human), sequence (P14616 whole entry, looked up): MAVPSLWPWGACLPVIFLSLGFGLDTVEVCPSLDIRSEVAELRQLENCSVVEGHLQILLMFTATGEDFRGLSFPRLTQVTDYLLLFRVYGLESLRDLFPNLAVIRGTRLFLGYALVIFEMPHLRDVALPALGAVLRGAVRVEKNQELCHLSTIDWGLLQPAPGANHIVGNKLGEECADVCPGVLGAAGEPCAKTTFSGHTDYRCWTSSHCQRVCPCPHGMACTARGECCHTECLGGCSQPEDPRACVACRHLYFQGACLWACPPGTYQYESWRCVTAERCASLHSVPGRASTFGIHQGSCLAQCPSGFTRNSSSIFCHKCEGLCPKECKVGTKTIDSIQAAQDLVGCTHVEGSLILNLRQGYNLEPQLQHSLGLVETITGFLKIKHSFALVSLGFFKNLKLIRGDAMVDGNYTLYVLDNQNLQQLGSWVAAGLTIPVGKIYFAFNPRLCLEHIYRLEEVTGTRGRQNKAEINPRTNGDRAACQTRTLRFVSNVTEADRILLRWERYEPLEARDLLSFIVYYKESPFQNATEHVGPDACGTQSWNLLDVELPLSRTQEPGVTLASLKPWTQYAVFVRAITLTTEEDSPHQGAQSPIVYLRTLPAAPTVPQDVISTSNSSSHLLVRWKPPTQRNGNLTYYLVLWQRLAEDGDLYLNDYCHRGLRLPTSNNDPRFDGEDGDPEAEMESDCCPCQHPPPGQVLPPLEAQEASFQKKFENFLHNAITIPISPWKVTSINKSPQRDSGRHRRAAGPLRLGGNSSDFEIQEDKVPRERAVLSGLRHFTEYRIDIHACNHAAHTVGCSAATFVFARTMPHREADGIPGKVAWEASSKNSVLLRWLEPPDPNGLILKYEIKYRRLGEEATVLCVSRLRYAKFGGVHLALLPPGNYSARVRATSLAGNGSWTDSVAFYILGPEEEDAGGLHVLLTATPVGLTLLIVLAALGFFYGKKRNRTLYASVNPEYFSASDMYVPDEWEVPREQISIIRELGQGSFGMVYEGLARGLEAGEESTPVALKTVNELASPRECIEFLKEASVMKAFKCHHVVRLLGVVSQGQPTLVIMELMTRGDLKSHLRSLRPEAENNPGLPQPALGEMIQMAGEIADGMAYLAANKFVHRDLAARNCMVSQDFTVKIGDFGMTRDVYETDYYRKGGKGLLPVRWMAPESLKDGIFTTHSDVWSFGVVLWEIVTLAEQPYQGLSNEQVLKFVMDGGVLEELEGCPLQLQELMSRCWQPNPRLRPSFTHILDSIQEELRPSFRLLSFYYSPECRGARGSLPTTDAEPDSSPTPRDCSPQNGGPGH

IRAK1 (human) = IRAK1 (human) (UniProt P51617)
IRAK4 (human) = IRAK4 (human) (UniProt Q9NWZ3)
LIMK1 (human) = LIMK1 (human) (UniProt P53667)
MAP3K5 (human) = MAP3K5 (human) (UniProt Q99683)
MAP4K2 (human) = MAP4K2 (human) (UniProt Q12851)
MAPK10 (human) = MAPK10 (human) (UniProt P53779)
MARK3 (human) = MARK3 (human) (UniProt P27448)
MARK3 (human), sequence (P27448 whole entry, looked up): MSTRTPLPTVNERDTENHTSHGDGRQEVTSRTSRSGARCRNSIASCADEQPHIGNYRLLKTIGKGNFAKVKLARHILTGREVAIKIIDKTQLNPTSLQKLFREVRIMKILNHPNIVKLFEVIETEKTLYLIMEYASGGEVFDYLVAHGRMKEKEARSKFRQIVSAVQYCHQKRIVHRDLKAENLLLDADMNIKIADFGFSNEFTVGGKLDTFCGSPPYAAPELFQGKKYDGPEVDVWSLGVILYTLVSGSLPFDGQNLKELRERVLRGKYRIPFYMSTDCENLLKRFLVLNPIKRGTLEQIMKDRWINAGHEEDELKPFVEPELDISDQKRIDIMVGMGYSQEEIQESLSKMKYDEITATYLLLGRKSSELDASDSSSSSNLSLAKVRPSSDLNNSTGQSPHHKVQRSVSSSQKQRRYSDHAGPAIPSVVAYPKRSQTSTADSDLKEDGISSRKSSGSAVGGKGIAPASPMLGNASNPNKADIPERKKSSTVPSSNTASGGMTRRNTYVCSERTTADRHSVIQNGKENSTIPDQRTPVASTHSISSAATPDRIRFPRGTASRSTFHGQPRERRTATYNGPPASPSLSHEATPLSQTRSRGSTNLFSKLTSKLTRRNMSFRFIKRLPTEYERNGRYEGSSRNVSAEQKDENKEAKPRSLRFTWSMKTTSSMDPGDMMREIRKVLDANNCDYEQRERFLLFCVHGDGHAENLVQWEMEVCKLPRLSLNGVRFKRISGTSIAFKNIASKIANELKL

NEK1 (human) = NEK1 (human) (UniProt Q96PY6)
NEK11 (human) = NEK11 (human) (UniProt Q8NG66)
NEK3 (human) = NEK3 (human) (UniProt P51956)
NEK6 (human) = NEK6 (human) (UniProt Q9HC98)
NEK6 (human), sequence (Q9HC98 whole entry, looked up): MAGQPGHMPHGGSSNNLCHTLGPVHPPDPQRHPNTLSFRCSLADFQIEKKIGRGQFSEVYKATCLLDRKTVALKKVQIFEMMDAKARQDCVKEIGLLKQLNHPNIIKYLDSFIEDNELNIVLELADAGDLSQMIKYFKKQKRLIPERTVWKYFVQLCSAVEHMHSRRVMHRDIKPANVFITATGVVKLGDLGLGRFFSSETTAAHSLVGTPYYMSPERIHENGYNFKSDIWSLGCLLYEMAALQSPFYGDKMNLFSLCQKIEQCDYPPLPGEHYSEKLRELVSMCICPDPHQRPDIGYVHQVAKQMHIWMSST

NLK (human) = NLK (human) (UniProt Q9UBE8)
NLK (human), sequence (Q9UBE8 whole entry, looked up): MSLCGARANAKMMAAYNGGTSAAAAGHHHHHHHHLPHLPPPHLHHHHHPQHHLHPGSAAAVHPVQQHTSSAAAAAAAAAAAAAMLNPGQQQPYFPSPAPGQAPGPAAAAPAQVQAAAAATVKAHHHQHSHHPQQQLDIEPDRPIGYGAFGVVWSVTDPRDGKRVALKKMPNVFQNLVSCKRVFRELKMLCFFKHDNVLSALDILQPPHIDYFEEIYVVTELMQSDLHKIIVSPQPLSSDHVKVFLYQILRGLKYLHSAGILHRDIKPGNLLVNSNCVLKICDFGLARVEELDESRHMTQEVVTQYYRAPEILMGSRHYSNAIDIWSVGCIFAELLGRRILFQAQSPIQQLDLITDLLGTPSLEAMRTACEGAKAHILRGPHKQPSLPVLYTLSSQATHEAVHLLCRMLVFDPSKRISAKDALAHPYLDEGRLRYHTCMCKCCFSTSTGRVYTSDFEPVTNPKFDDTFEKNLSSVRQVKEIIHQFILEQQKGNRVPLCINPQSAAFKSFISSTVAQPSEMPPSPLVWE

PDGFRB (human) = PDGFRB (human) (UniProt P09619)
PIM1 (human) = PIM1 (human) (UniProt P11309)
PRKCB1 (human) = PRKCB1 (human) (UniProt P05771)
PRKCE (human) = PRKCE (human) (UniProt Q02156)
PRKCI (human) = PRKCI (human) (UniProt P41743)
PRKD1 (human) = PRKD1 (human) (UniProt Q15139)
PRKX (human) = PRKX (human) (UniProt P51817)
PRKX (human), sequence (P51817 whole entry, looked up): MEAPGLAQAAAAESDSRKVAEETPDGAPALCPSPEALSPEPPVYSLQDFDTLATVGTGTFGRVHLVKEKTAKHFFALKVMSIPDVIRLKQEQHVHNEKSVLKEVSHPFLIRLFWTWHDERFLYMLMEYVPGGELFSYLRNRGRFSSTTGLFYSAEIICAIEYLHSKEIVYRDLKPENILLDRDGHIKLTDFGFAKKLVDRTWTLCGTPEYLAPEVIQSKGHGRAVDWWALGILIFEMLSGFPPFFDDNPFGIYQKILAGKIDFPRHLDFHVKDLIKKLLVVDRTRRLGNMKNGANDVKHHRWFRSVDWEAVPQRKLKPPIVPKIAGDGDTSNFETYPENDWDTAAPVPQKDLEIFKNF

RIPK2 (human) = RIPK2 (human) (UniProt O43353)
RPS6KA4 KD2 (human) = RPS6KA4 KD2 (human) (UniProt O75676)
RPS6KA4 KD2 (human), sequence (O75676 whole entry, looked up): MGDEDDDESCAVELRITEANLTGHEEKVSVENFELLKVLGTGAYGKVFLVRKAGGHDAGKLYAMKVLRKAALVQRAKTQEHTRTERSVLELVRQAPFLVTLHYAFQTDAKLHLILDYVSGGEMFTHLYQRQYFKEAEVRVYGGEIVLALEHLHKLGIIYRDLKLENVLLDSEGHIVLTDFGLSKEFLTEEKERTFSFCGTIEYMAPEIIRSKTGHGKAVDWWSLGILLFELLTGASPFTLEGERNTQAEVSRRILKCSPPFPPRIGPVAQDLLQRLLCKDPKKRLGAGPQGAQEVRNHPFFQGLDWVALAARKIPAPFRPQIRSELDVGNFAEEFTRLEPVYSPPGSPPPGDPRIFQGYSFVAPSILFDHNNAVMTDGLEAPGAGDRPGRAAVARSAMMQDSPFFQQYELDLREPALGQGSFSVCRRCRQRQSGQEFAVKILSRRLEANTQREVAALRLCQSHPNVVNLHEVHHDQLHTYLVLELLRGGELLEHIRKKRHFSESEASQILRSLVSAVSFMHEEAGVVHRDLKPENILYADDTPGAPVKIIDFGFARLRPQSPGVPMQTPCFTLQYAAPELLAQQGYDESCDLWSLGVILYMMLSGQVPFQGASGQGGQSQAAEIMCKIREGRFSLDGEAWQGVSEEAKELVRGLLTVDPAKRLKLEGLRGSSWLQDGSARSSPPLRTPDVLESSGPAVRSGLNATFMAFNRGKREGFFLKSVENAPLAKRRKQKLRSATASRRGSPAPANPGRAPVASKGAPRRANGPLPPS

RPS6KA5 KD2 (human) = RPS6KA5 KD2 (human) (UniProt O75582)
SRC (human) = SRC (human) (UniProt P12931)
SRPK1 (human) = SRPK1 (human) (UniProt Q96SB4)
SYK (human) = SYK (human) (UniProt P43405)
TSSK2 (human) = TSSK2 (human) (UniProt Q96PF2)
YES1 (human) = YES1 (human) (UniProt P07947)

Cc1cc(Nc2nc(-c3ccccc3)nc3ccccc23)n[nH]1
residual activity (ADRBK2 (human)): 106%
residual activity (AKT1 (human)): 107%
residual activity (CAMKK1 (human)): 90.7%
residual activity (CDK3 CCNE1 (human)): 85%
residual activity (CLK3 (human)): 33.8%
residual activity (CSNK1A1 (human)): 94.6%
residual activity (CSNK1G1 (human)): 75.7%
residual activity (DYRK2 (human)): 84%
residual activity (EPHA5 (human)): 90.6%
residual activity (EPHB1 (human)): 93.1%
residual activity (EPHB3 (human)): 86.5%
residual activity (FER (human)): 31.6%
residual activity (FLT3 (human)): 10.5%
residual activity (GRK6 (human)): 75.8%
residual activity (INSRR (human)): 20.7%
residual activity (IRAK1 (human)): 79.3%
residual activity (IRAK4 (human)): 93.2%
residual activity (LIMK1 (human)): 59.6%
residual activity (MAP3K5 (human)): 99.5%
residual activity (MAP4K2 (human)): 45.3%
residual activity (MAPK10 (human)): 88.7%
residual activity (MARK3 (human)): 89%
residual activity (NEK1 (human)): 93%
residual activity (NEK11 (human)): 105%
residual activity (NEK3 (human)): 101%
residual activity (NEK6 (human)): 93.9%
residual activity (NLK (human)): 94.7%
residual activity (PDGFRB (human)): 55.4%
residual activity (PIM1 (human)): 83.3%
residual activity (PRKCB1 (human)): 99.9%
residual activity (PRKCE (human)): 87.1%
residual activity (PRKCI (human)): 82.6%
residual activity (PRKD1 (human)): 77.4%
residual activity (PRKX (human)): 101%
residual activity (RIPK2 (human)): 70.4%
residual activity (RPS6KA4 KD2 (human)): 108%
residual activity (RPS6KA5 KD2 (human)): 70.5%
residual activity (SRC (human)): 24.4%
residual activity (SRPK1 (human)): 90.1%
residual activity (SYK (human)): 61.9%
residual activity (TSSK2 (human)): 105%
residual activity (YES1 (human)): 20.4%

O=C1NC(=O)c2cc(Nc3ccc(F)cc3)c(Nc3ccc(F)cc3)cc21
residual activity (ADRBK2 (human)): 104%
residual activity (AKT1 (human)): 94.8%
residual activity (CAMKK1 (human)): 90.2%
residual activity (CDK3 CCNE1 (human)): 98.9%
residual activity (CLK3 (human)): 93.7%
residual activity (CSNK1A1 (human)): 88%
residual activity (CSNK1G1 (human)): 96.3%
residual activity (DYRK2 (human)): 89.1%
residual activity (EPHA5 (human)): 95.4%
residual activity (EPHB1 (human)): 103%
residual activity (EPHB3 (human)): 94.7%
residual activity (FER (human)): 96.4%
residual activity (FLT3 (human)): 91.5%
residual activity (GRK6 (human)): 98.7%
residual activity (INSRR (human)): 111%
residual activity (IRAK1 (human)): 88.5%
residual activity (IRAK4 (human)): 98.1%
residual activity (LIMK1 (human)): 95.9%
residual activity (MAP3K5 (human)): 96.6%
residual activity (MAP4K2 (human)): 98.2%
residual activity (MAPK10 (human)): 97.3%
residual activity (MARK3 (human)): 90.8%
residual activity (NEK1 (human)): 88%
residual activity (NEK11 (human)): 103%
residual activity (NEK3 (human)): 99.1%
residual activity (NEK6 (human)): 109%
residual activity (NLK (human)): 103%
residual activity (PDGFRB (human)): 93.9%
residual activity (PIM1 (human)): 81.8%
residual activity (PRKCB1 (human)): 28.2%
residual activity (PRKCE (human)): 97.8%
residual activity (PRKCI (human)): 89%
residual activity (PRKD1 (human)): 92.2%
residual activity (PRKX (human)): 103%
residual activity (RIPK2 (human)): 95%
residual activity (RPS6KA4 KD2 (human)): 102%
residual activity (RPS6KA5 KD2 (human)): 93.6%
residual activity (SRC (human)): 101%
residual activity (SRPK1 (human)): 102%
residual activity (SYK (human)): 98.8%
residual activity (TSSK2 (human)): 97.2%
residual activity (YES1 (human)): 86.6%

O=c1c(-c2ccc(F)cc2)c(-c2ccncc2)[nH]n1-c1ccc(Cl)cc1
residual activity (ADRBK2 (human)): 95%
residual activity (AKT1 (human)): 96.4%
residual activity (CAMKK1 (human)): 98.5%
residual activity (CDK3 CCNE1 (human)): 86.9%
residual activity (CLK3 (human)): 88.7%
residual activity (CSNK1A1 (human)): 63.7%
residual activity (CSNK1G1 (human)): 83.4%
residual activity (DYRK2 (human)): 86.9%
residual activity (EPHA5 (human)): 106%
residual activity (EPHB1 (human)): 90.5%
residual activity (EPHB3 (human)): 92.2%
residual activity (FER (human)): 94.3%
residual activity (FLT3 (human)): 92.8%
residual activity (GRK6 (human)): 90.1%
residual activity (INSRR (human)): 95.4%
residual activity (IRAK1 (human)): 103%
residual activity (IRAK4 (human)): 81.9%
residual activity (LIMK1 (human)): 91.5%
residual activity (MAP3K5 (human)): 115%
residual activity (MAP4K2 (human)): 87.7%
residual activity (MAPK10 (human)): 97.1%
residual activity (MARK3 (human)): 87.2%
residual activity (NEK1 (human)): 78.7%
residual activity (NEK11 (human)): 104%
residual activity (NEK3 (human)): 100%
residual activity (NEK6 (human)): 106%
residual activity (NLK (human)): 16%
residual activity (PDGFRB (human)): 101%
residual activity (PIM1 (human)): 101%
residual activity (PRKCB1 (human)): 84.7%
residual activity (PRKCE (human)): 96.7%
residual activity (PRKCI (human)): 96.2%
residual activity (PRKD1 (human)): 84.7%
residual activity (PRKX (human)): 97%
residual activity (RIPK2 (human)): 50.2%
residual activity (RPS6KA4 KD2 (human)): 103%
residual activity (RPS6KA5 KD2 (human)): 93.5%
residual activity (SRC (human)): 91.6%
residual activity (SRPK1 (human)): 97.9%
residual activity (SYK (human)): 98.9%
residual activity (TSSK2 (human)): 80%
residual activity (YES1 (human)): 85.1%

O=C(c1ccccc1)c1ccc(N2CCOCC2)cc1O
residual activity (ADRBK2 (human)): 103%
residual activity (AKT1 (human)): 102%
residual activity (CAMKK1 (human)): 107%
residual activity (CDK3 CCNE1 (human)): 105%
residual activity (CLK3 (human)): 90.2%
residual activity (CSNK1A1 (human)): 110%
residual activity (CSNK1G1 (human)): 105%
residual activity (DYRK2 (human)): 96.8%
residual activity (EPHA5 (human)): 112%
residual activity (EPHB1 (human)): 104%
residual activity (EPHB3 (human)): 92.2%
residual activity (FER (human)): 94.2%
residual activity (FLT3 (human)): 90.6%
residual activity (GRK6 (human)): 99.4%
residual activity (INSRR (human)): 97.6%
residual activity (IRAK1 (human)): 103%
residual activity (IRAK4 (human)): 108%
residual activity (LIMK1 (human)): 83.9%
residual activity (MAP3K5 (human)): 97.8%
residual activity (MAP4K2 (human)): 116%
residual activity (MAPK10 (human)): 75.3%
residual activity (MARK3 (human)): 105%
residual activity (NEK1 (human)): 115%
residual activity (NEK11 (human)): 97.7%
residual activity (NEK3 (human)): 95.6%
residual activity (NEK6 (human)): 95%
residual activity (NLK (human)): 97.3%
residual activity (PDGFRB (human)): 96.5%
residual activity (PIM1 (human)): 101%
residual activity (PRKCB1 (human)): 90.1%
residual activity (PRKCE (human)): 92.3%
residual activity (PRKCI (human)): 98.3%
residual activity (PRKD1 (human)): 102%
residual activity (PRKX (human)): 109%
residual activity (RIPK2 (human)): 95%
residual activity (RPS6KA4 KD2 (human)): 105%
residual activity (RPS6KA5 KD2 (human)): 102%
residual activity (SRC (human)): 97.8%
residual activity (SRPK1 (human)): 94.2%
residual activity (SYK (human)): 96.6%
residual activity (TSSK2 (human)): 104%
residual activity (YES1 (human)): 103%

— the kinase profiling compilation of Christmann-Franck et al. (2016)
